ChEMBL document CHEMBL1139649, “Hetaryl imidazoles: a novel dual inhibitors of VEGF receptors I and II” (Bioorg Med Chem Lett, 2006)
pIC50: −log10 of the molar value.

Biological target: Receptor tyrosine-protein kinase erbB-2 (Homo sapiens) (UniProt P04626)
Test: […] against ErbB2 at 10 uM by HTRF method

Chain of Receptor tyrosine-protein kinase erbB-2 (Homo sapiens) (P04626 whole entry): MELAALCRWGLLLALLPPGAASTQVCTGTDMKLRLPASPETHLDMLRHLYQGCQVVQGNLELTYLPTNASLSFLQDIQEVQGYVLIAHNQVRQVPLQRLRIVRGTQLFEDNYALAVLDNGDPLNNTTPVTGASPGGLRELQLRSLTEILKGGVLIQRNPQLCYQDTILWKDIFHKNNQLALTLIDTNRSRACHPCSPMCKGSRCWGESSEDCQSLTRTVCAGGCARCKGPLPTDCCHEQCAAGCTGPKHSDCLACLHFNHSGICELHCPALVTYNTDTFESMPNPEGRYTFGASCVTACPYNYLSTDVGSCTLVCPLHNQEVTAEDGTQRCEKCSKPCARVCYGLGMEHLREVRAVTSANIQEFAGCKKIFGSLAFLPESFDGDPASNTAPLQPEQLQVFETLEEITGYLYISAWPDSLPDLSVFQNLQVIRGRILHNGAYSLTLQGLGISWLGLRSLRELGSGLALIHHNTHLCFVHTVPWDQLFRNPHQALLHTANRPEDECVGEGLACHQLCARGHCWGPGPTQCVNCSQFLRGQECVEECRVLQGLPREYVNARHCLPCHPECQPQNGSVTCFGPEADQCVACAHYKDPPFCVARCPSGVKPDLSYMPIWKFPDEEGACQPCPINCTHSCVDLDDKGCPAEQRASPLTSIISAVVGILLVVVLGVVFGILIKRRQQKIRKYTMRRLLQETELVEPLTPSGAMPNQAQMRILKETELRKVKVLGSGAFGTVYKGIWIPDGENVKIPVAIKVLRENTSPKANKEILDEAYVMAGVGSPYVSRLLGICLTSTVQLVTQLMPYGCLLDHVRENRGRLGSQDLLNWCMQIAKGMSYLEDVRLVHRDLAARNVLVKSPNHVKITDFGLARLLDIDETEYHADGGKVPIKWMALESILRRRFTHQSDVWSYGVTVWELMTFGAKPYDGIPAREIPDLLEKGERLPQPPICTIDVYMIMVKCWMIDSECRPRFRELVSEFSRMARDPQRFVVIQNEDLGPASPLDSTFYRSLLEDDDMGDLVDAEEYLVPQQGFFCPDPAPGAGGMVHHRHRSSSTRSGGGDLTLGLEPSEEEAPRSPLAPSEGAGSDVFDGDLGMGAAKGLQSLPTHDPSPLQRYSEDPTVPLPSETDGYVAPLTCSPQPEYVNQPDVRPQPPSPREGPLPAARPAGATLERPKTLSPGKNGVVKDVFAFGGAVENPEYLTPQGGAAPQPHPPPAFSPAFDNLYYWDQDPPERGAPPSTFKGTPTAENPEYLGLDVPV

Activity [%] | SMILES
< 30 | COc1cccc(Nc2nnc(-c3c(NCc4ccncc4)ncn3C)o2)c1
< 30 | Cn1cnc(NCc2ccncc2)c1-c1nnc(NCc2ccc3c(c2)OCO3)o1
< 30 | Cn1cnc(NCc2cccc3ncccc23)c1-c1nnc(Nc2ccc(Cl)cc2)o1

Tested on: not listed separately
Test: Solubility in water
Format: physicochemical

solubility [mM] | SMILES
> 5 | COc1cccc(Nc2nnc(-c3c(NCc4ccncc4)ncn3C)o2)c1

Biological target: T1, Ephrin type-B receptor 4 (Homo sapiens) (UniProt P54760)
T1 sequence (whole entry): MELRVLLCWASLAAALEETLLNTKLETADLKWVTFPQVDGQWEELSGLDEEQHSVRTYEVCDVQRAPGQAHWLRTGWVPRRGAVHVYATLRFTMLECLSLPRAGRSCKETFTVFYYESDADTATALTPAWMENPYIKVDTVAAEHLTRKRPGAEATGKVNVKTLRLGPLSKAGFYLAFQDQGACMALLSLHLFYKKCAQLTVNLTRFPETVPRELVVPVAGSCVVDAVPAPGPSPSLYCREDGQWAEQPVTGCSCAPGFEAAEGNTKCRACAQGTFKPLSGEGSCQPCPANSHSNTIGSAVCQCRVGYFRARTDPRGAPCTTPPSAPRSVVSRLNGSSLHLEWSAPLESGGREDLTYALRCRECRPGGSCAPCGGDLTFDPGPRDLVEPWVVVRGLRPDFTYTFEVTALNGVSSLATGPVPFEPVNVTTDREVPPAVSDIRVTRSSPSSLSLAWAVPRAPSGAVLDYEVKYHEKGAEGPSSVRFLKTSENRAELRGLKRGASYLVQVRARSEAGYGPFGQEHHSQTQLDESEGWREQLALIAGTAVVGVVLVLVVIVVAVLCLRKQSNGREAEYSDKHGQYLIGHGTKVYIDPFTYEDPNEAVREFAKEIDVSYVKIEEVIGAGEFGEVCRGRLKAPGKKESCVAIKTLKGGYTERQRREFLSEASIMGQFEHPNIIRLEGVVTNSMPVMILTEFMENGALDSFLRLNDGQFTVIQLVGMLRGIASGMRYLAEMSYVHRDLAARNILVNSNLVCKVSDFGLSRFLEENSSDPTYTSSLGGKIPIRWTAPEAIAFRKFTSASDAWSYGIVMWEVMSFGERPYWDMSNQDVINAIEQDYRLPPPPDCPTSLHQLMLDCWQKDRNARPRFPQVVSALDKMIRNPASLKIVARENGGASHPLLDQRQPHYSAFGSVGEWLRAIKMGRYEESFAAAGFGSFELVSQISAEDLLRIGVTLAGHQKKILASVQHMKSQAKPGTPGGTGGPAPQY
Test: Percent inhibition against EphB4 at 10 uM by HTRF method
Set-up: scale not given: the % may be the effect or the level left

Activity [%] | SMILES
< 30 | COc1cccc(Nc2nnc(-c3c(NCc4ccncc4)ncn3C)o2)c1
< 30 | Cn1cnc(NCc2ccncc2)c1-c1nnc(NCc2ccc3c(c2)OCO3)o1
< 30 | Cn1cnc(NCc2cccc3ncccc23)c1-c1nnc(Nc2ccc(Cl)cc2)o1

Biological target: T2, Vascular endothelial growth factor receptor 2 (Homo sapiens, UniProt P35968)
Test: Inhibition of VEGFR2 in 293 adenovirus transfected kidney cells by cell-based ELISA assay

pIC50 | SMILES
7.19 | COc1cccc(Nc2nnc(-c3c(NCc4ccncc4)ncn3C)o2)c1
6.57 | Cn1cnc(NCc2ccncc2)c1-c1nnc(NCc2ccc3c(c2)OCO3)o1
< 5.00 | Cn1cnc(NCc2cccc3ncccc23)c1-c1nnc(Nc2ccc(Cl)cc2)o1

Biological target: RAC-alpha serine/threonine-protein kinase (Homo sapiens) (UniProt P31749)
Test: […] against PKB/Akt at 10 uM by HTRF method

Activity [%] | SMILES
< 30 | COc1cccc(Nc2nnc(-c3c(NCc4ccncc4)ncn3C)o2)c1
< 30 | Cn1cnc(NCc2ccncc2)c1-c1nnc(NCc2ccc3c(c2)OCO3)o1
< 30 | Cn1cnc(NCc2cccc3ncccc23)c1-c1nnc(Nc2ccc(Cl)cc2)o1

Biological target: Vascular endothelial growth factor receptor 1 (Homo sapiens, UniProt P17948)
Test: Inhibition of VEGFR1 by enzymatic assay

pIC50 | SMILES
6.17 | COc1cccc(Nc2nnc(-c3c(NCc4ccncc4)ncn3C)o2)c1
6.36 | Cn1cnc(NCc2ccncc2)c1-c1nnc(NCc2ccc3c(c2)OCO3)o1
< 5.00 | Cn1cnc(NCc2cccc3ncccc23)c1-c1nnc(Nc2ccc(Cl)cc2)o1

Biological target: Hepatocyte growth factor receptor (Homo sapiens) (UniProt P08581)
Test: Percent inhibition against c-Met at 10 uM by HTRF method
Set-up: scale not given: the % may be the effect or the level left

Activity [%] | SMILES
< 30 | COc1cccc(Nc2nnc(-c3c(NCc4ccncc4)ncn3C)o2)c1
< 30 | Cn1cnc(NCc2ccncc2)c1-c1nnc(NCc2ccc3c(c2)OCO3)o1
< 30 | Cn1cnc(NCc2cccc3ncccc23)c1-c1nnc(Nc2ccc(Cl)cc2)o1

Biological target: Epidermal growth factor receptor (Homo sapiens) (UniProt P00533)
Test: […] against ErbB1 at 10 uM by HTRF method

Percent inhibition [%] | SMILES
< 30 | COc1cccc(Nc2nnc(-c3c(NCc4ccncc4)ncn3C)o2)c1
< 30 | Cn1cnc(NCc2ccncc2)c1-c1nnc(NCc2ccc3c(c2)OCO3)o1
< 30 | Cn1cnc(NCc2cccc3ncccc23)c1-c1nnc(Nc2ccc(Cl)cc2)o1

Biological target: Fibroblast growth factor receptor 1 (Homo sapiens) (UniProt P11362)
Sequence (P11362 22-822 limits assumed): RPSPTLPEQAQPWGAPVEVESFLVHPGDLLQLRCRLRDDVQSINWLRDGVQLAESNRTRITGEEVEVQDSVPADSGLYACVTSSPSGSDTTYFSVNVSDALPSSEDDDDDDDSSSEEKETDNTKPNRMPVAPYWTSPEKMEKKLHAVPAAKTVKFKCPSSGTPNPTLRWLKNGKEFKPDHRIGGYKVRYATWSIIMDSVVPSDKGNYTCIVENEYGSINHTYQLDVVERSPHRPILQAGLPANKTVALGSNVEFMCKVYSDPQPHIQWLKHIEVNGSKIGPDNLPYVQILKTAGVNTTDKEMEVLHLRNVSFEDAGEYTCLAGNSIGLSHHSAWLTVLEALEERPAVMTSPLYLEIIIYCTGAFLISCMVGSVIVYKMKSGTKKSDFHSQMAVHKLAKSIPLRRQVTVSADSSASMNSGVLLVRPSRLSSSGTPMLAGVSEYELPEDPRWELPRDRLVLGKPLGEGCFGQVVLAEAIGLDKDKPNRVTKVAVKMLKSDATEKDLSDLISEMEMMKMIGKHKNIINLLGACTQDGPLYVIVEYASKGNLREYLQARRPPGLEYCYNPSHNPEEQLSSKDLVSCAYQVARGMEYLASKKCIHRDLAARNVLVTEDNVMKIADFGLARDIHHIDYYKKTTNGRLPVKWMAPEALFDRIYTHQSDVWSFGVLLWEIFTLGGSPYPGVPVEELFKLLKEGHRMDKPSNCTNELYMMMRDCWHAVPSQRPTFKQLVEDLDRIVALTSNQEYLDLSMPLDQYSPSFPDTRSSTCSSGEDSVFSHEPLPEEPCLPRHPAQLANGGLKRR
Test: Percent inhibition against FGFR1 at 10 uM by HTRF method
Set-up: scale not given: the % may be the effect or the level left

Activity [%] | SMILES
< 30 | COc1cccc(Nc2nnc(-c3c(NCc4ccncc4)ncn3C)o2)c1
< 30 | Cn1cnc(NCc2ccncc2)c1-c1nnc(NCc2ccc3c(c2)OCO3)o1
< 30 | Cn1cnc(NCc2cccc3ncccc23)c1-c1nnc(Nc2ccc(Cl)cc2)o1

Biological target: Cyclin-dependent kinase 5 (Homo sapiens) (UniProt Q00535)
Test: […] against Cdk5 at 10 uM by HTRF method

Activity [%] | SMILES
< 30 | COc1cccc(Nc2nnc(-c3c(NCc4ccncc4)ncn3C)o2)c1
< 30 | Cn1cnc(NCc2ccncc2)c1-c1nnc(NCc2ccc3c(c2)OCO3)o1
< 30 | Cn1cnc(NCc2cccc3ncccc23)c1-c1nnc(Nc2ccc(Cl)cc2)o1

Biological target: Glycogen synthase kinase-3 beta (Homo sapiens) (UniProt P49841)
Sequence (P49841 whole entry, looked up): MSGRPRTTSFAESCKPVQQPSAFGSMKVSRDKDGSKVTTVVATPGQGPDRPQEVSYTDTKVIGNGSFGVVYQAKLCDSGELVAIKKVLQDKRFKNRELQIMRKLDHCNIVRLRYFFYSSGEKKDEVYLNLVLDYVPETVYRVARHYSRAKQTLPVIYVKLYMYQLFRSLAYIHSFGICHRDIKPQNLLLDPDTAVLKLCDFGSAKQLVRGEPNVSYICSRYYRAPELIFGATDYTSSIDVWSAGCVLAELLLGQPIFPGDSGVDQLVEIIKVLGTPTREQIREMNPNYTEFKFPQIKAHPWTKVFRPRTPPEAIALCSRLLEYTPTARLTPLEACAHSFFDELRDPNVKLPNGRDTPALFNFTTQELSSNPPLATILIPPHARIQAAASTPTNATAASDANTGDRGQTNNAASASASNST
Test: Inhibition against GSK3-beta at 10 uM by HTRF method
Set-up: scale not given: the % may be the effect or the level left

Activity [%] | SMILES
< 30 | COc1cccc(Nc2nnc(-c3c(NCc4ccncc4)ncn3C)o2)c1
< 30 | Cn1cnc(NCc2ccncc2)c1-c1nnc(NCc2ccc3c(c2)OCO3)o1
< 30 | Cn1cnc(NCc2cccc3ncccc23)c1-c1nnc(Nc2ccc(Cl)cc2)o1

Biological target: cAMP-dependent protein kinase (PKA) (Homo sapiens) (UniProt P22694+P17612+P22612)
Test: Inhibition against PKA at 10 uM by HTRF method
Format: protein assay
Set-up: scale not given: the % may be the effect or the level left

Activity [%] | SMILES
< 30 | COc1cccc(Nc2nnc(-c3c(NCc4ccncc4)ncn3C)o2)c1
< 30 | Cn1cnc(NCc2ccncc2)c1-c1nnc(NCc2ccc3c(c2)OCO3)o1
< 30 | Cn1cnc(NCc2cccc3ncccc23)c1-c1nnc(Nc2ccc(Cl)cc2)o1

Biological target: Bcr/Abl fusion protein (Homo sapiens) (UniProt P00519+P11274)
Sequence (P00519 whole entry, looked up, the tested form may be a part): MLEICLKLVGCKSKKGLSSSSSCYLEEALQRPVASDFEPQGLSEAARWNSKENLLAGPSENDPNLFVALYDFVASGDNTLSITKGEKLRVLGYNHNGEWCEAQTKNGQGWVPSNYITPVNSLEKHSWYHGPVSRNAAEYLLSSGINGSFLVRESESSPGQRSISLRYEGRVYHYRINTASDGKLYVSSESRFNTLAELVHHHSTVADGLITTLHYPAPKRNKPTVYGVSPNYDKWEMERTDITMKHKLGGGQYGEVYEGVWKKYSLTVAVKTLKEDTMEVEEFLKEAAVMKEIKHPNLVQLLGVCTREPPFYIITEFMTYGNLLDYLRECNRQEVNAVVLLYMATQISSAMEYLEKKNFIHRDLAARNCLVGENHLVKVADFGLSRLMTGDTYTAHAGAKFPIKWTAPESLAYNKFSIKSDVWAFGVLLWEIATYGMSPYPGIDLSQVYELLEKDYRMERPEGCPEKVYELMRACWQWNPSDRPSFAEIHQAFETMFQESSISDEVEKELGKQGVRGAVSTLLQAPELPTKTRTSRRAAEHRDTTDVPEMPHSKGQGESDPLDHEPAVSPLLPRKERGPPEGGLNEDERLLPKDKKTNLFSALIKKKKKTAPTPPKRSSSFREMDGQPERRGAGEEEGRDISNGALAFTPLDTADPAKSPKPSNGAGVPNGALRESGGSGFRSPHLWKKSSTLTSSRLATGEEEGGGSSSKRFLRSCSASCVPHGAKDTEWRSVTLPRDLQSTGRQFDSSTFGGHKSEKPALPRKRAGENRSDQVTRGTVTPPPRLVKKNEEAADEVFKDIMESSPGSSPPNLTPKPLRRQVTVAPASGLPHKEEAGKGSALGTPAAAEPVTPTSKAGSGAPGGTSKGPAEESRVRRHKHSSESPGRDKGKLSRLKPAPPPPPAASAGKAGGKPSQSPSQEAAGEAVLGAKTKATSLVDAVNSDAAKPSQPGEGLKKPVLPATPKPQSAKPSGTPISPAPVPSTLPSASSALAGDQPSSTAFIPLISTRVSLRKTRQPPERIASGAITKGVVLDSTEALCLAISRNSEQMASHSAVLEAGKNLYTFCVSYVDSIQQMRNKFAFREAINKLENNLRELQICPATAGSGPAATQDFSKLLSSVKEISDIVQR
Sequence (P11274 whole entry, looked up, the tested form may be a part): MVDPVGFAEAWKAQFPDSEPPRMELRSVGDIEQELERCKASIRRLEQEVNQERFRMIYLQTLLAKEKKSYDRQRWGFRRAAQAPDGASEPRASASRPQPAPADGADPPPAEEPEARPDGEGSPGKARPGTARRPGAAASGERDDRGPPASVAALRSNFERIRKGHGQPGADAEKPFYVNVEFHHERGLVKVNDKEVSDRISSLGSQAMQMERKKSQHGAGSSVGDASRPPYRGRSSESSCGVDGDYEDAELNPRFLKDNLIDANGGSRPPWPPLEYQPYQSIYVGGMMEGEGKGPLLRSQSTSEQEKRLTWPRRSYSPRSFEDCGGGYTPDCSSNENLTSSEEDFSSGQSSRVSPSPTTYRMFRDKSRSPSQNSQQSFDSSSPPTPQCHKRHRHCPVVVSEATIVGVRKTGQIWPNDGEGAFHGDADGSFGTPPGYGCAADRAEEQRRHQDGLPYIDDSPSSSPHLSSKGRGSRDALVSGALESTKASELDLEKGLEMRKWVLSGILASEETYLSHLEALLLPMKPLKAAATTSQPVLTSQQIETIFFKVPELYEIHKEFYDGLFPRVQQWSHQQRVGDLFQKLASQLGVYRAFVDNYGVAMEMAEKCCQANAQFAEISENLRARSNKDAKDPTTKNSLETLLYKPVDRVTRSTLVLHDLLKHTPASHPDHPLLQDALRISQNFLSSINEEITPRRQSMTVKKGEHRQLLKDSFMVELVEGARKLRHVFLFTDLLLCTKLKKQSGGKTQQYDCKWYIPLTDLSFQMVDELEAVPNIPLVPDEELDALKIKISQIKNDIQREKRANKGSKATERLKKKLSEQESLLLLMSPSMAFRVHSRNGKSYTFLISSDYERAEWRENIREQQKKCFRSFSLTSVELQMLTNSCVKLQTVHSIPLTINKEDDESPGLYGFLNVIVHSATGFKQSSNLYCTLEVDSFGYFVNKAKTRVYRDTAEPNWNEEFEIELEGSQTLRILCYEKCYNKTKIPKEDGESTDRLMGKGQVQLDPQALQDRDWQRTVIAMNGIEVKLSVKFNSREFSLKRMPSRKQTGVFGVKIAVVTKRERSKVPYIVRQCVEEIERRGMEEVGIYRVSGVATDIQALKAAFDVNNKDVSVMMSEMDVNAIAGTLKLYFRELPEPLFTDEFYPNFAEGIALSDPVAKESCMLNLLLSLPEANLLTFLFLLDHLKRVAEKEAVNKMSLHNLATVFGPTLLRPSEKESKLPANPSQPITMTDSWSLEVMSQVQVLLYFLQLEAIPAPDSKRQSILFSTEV
Test: Inhibition of bcr-Abl at 10 uM by HTRF method
Format: protein assay
Set-up: scale not given: the % may be the effect or the level left

Activity [%] | SMILES
< 30 | COc1cccc(Nc2nnc(-c3c(NCc4ccncc4)ncn3C)o2)c1
< 30 | Cn1cnc(NCc2ccncc2)c1-c1nnc(NCc2ccc3c(c2)OCO3)o1
< 30 | Cn1cnc(NCc2cccc3ncccc23)c1-c1nnc(Nc2ccc(Cl)cc2)o1

Biological target: Cyclin-dependent kinase 2 (Homo sapiens) (UniProt P24941)
Test: […] against Cdk2 at 10 uM by HTRF method

Percent inhibition [%] | SMILES
< 30 | COc1cccc(Nc2nnc(-c3c(NCc4ccncc4)ncn3C)o2)c1
< 30 | Cn1cnc(NCc2ccncc2)c1-c1nnc(NCc2ccc3c(c2)OCO3)o1
< 30 | Cn1cnc(NCc2cccc3ncccc23)c1-c1nnc(Nc2ccc(Cl)cc2)o1

Biological target: Receptor-type tyrosine-protein kinase FLT3 (Homo sapiens) (UniProt P36888)
Test: Inhibition of Flt3 at 10 uM by HTRF method
Set-up: scale not given: the % may be the effect or the level left

Activity [%] | SMILES
< 30 | COc1cccc(Nc2nnc(-c3c(NCc4ccncc4)ncn3C)o2)c1
< 30 | Cn1cnc(NCc2ccncc2)c1-c1nnc(NCc2ccc3c(c2)OCO3)o1
< 30 | Cn1cnc(NCc2cccc3ncccc23)c1-c1nnc(Nc2ccc(Cl)cc2)o1

Biological target: T2, Vascular endothelial growth factor receptor 2
Test: Inhibition of VEGFR2 by enzymatic assay

pIC50 | SMILES
6.89 | COc1cccc(Nc2nnc(-c3c(NCc4ccncc4)ncn3C)o2)c1
6.85 | Cn1cnc(NCc2ccncc2)c1-c1nnc(NCc2ccc3c(c2)OCO3)o1
5.45 | Cn1cnc(NCc2cccc3ncccc23)c1-c1nnc(Nc2ccc(Cl)cc2)o1

Biological target: Insulin-like growth factor 1 receptor (Homo sapiens) (UniProt P08069)
Test: […] against IGF1R at 10 uM by HTRF method

Activity [%] | SMILES
< 30 | COc1cccc(Nc2nnc(-c3c(NCc4ccncc4)ncn3C)o2)c1
< 30 | Cn1cnc(NCc2ccncc2)c1-c1nnc(NCc2ccc3c(c2)OCO3)o1
< 30 | Cn1cnc(NCc2cccc3ncccc23)c1-c1nnc(Nc2ccc(Cl)cc2)o1
